Measurements published in US7009045B2 (priority 2000, dated 2006).
“And” between values parts separate entries of the source, which are not always exact repeats. Equal entries are not always repeated.

Columns and labels:
C. famata = assay type: cell-based, Candida famata
[1] = test system: Candida famata regulatory mutants able to overproduce riboflavin; assay: Sensitivity to copper ions, solid Burkholder medium (Table 12); assay type: cell-based; design: key: +++: strong growth; ++: weak growth; —: absence of growth
Experimental: The sensitivity of the regulatory mutants of the yeast C. famata which overproduce riboflavin in iron rich medium probably due to defects in genes regulating repression (repression mutants), to different ions of heavy metals was studied. For this, the analyzed strains were streaked on the YPD plates and then were replica-plated on Burkholder synthetic medium containing leucine (40 μg/ml). The C.famata mutants L20105-40-1-11, L20105-40-1-17, L20105-3-2-1, L20105-3-2-8 and L20105-3-2-12 (all contained leu2 marker) accumulated 80–100 μg riboflavin/ml. The mutants #75, 4-48, 2-5 produced much higher amounts of riboflavin (200–250 μg/ml) but were prototrophs for leucine synthesis. Strain #75 was characterized by retarded growth comparing with other mutants. The strains VKM Y-9 (wild type) and L20105 (leu2) were used as the control strains.
Mutants overproducing lower amounts of riboflavin appeared to be more sensitive to CuSO4 (0.15 mM) than that of the strains producing higher amounts of riboflavin (inhibitory concentration 0.5 mM) (Table 12).

[2] = test system: Candida famata regulatory mutants unable to overproduce riboflavin; assay: Sensitivity to K2Cr2O7, Burkholder medium (Table 10); assay type: cell-based
From the text: In the next experiments, the influence of cobalt and chromium ions on the growth and riboflavin synthesis of regulatory mutants having defects in derepression (derepression mutants) was studied.

[3] = test system: Candida famata wild type and regulatory mutants able to overproduce riboflavin on iron-rich medium; assay: Sensitivity after electroporation to K2Cr2O7, Burkholder medium with 1% ethanol (Table 17); assay type: cell-based; conditions: K2Cr2O7 15–50 μM
From the text: The strategy for the cloning of the genes regulating derepression of riboflavin in C. famata was developed using regulatory mutants 2-5 and 4-48 which accumulate elevated amounts of riboflavin in the medium with high iron content. The method for positive selection of the transformants which, after transformation with C. famata gene library, would lose the ability to overproduce riboflavin in iron rich medium, was developed. For this, the difference in sensitivity to Cr^+6 ions (as K2Cr2O7) between C. famata wild strain VKM Y-9 and overproducers of riboflavin 2-5 and 4-48 after their electroporation with the C. famata gene library constructed on pCfARS1614, was studied.
Toxicity of Cr^+6 was studied on agar plates containing different carbon sources (sucrose, glycerol, ethanol). Before the electroporated cells were plated on ethanol and glycerol medium, the cells were washed 3 times with 10 fold volumes of 0.6 M KCl and the suspension volumes were adjusted with 0.6 M KCl to 100 μl. On each plate containing glycerol (0.5%) or ethanol (1%), 0.6 M KCl and different concentrations (10–200 uM) of K2Cr2O7, in a 30–60 μl suspension were spread. Where sucrose was used as a carbon source, this sugar was used at a 0.3M concentration, using it as both as a carbon source and osmotic stabilizer.

SMILES: [Cl-].[Cl-].[Co+2] [CoCl2]
- concentration non-toxic for yeast growth that stimulates riboflavin synthesis (C. famata): 15 µg/mL
- higher concentrations tested that inhibited plate growth (C. famata): 50 µg/mL and 100 µg/mL
- maximal subinhibitory concentration which stimulates flavinogenesis (C. famata): 25 µg/mL

SMILES: O=S(=O)([O-])[O-].[Cu+2] [CuSO4]
- growth ([1]; #2-5, Cu^+2 0.05 mM): +++
- growth ([1]; #2-5, Cu^+2 0.1 mM): +++
- growth ([1]; #2-5, Cu^+2 0.15 mM): +++
- growth ([1]; #2-5, Cu^+2 0.2 mM): +++
- growth ([1]; #2-5, Cu^+2 0.25 mM): +++
- growth ([1]; #2-5, Cu^+2 0.3 mM): ++
- growth ([1]; #2-5, Cu^+2 0.35 mM): ++
- growth ([1]; #2-5, Cu^+2 0.5 mM): —
- growth ([1]; #2-5, Cu^+2 0.55 mM): —
- growth ([1]; #2-5, Cu^+2 0.6 mM): —
- growth ([1]; #2-5, Cu^+2 0.65 mM): —
- growth ([1]; #2-5, Cu^+2 0.7 mM): —
- growth ([1]; #2-5, Cu^+2 0.75 mM): —
- growth ([1]; #2-5, Cu^+2 4 mM): ++
- growth ([1]; #2-5, Cu^+2 8 mM): —
- growth ([1]; #4-48, Cu^+2 0.05 mM): +++
- growth ([1]; #4-48, Cu^+2 0.1 mM): +++
- growth ([1]; #4-48, Cu^+2 0.15 mM): +++
- growth ([1]; #4-48, Cu^+2 0.2 mM): +++
- growth ([1]; #4-48, Cu^+2 0.25 mM): +++
- growth ([1]; #4-48, Cu^+2 0.3 mM): ++
- growth ([1]; #4-48, Cu^+2 0.35 mM): ++
- growth ([1]; #4-48, Cu^+2 0.5 mM): —
- growth ([1]; #4-48, Cu^+2 0.55 mM): —
- growth ([1]; #4-48, Cu^+2 0.6 mM): —
- growth ([1]; #4-48, Cu^+2 0.65 mM): —
- growth ([1]; #4-48, Cu^+2 0.7 mM): —
- growth ([1]; #4-48, Cu^+2 0.75 mM): —
- growth ([1]; #4-48, Cu^+2 4 mM): ++
- growth ([1]; #4-48, Cu^+2 8 mM): —
- growth ([1]; #75, Cu^+2 0.05 mM): +++
- growth ([1]; #75, Cu^+2 0.1 mM): +++
- growth ([1]; #75, Cu^+2 0.15 mM): +++
- growth ([1]; #75, Cu^+2 0.2 mM): +++
- growth ([1]; #75, Cu^+2 0.25 mM): +++
- growth ([1]; #75, Cu^+2 0.3 mM): ++
- growth ([1]; #75, Cu^+2 0.35 mM): ++
- growth ([1]; #75, Cu^+2 0.5 mM): —
- growth ([1]; #75, Cu^+2 0.55 mM): —
- growth ([1]; #75, Cu^+2 0.6 mM): —
- growth ([1]; #75, Cu^+2 0.65 mM): —
- growth ([1]; #75, Cu^+2 0.7 mM): —
- growth ([1]; #75, Cu^+2 0.75 mM): —
- growth ([1]; #75, Cu^+2 4 mM): ++
- growth ([1]; #75, Cu^+2 8 mM): —
- growth ([1]; L20105 (leu2), Cu^+2 0.45 mM): ++
- growth ([1]; L20105 (leu2), Cu^+2 0.5 mM): ++
- growth ([1]; L20105 (leu2), Cu^+2 0.55 mM): ++
- growth ([1]; L20105-3-2-4, Cu^+2 0.15 mM): —
- growth ([1]; L20105-3-2-4, Cu^+2 0.2 mM): —
- growth ([1]; L20105-3-2-4, Cu^+2 0.25 mM): —
- growth ([1]; L20105-3-2-4, Cu^+2 0.35 mM): —
- growth ([1]; L20105-3-2-4, Cu^+2 0.45 mM): —
- growth ([1]; L20105-3-2-4, Cu^+2 0.5 mM): —
- growth ([1]; L20105-3-2-4, Cu^+2 0.55 mM): —
- growth ([1]; L20105-3-2-4, Cu^+2 0.6 mM): —
- growth ([1]; L20105-3-2-4, Cu^+2 0.65 mM): —
- growth ([1]; L20105-3-2-4, Cu^+2 0.7 mM): —
- growth ([1]; L20105-3-2-4, Cu^+2 0.75 mM): —
- growth ([1]; L20105-3-2-4, Cu^+2 4 mM): —
- growth ([1]; L20105-3-2-8, Cu^+2 0.05 mM): ++
- growth ([1]; L20105-3-2-8, Cu^+2 0.15 mM): —
- growth ([1]; L20105-3-2-8, Cu^+2 0.2 mM): —
- growth ([1]; L20105-3-2-8, Cu^+2 0.25 mM): —
- growth ([1]; L20105-3-2-8, Cu^+2 0.3 mM): —
- growth ([1]; L20105-3-2-8, Cu^+2 0.35 mM): —
- growth ([1]; L20105-3-2-8, Cu^+2 0.45 mM): —
- growth ([1]; L20105-3-2-8, Cu^+2 0.5 mM): —
- growth ([1]; L20105-3-2-8, Cu^+2 0.55 mM): —
- growth ([1]; L20105-3-2-8, Cu^+2 0.6 mM): —
- growth ([1]; L20105-3-2-8, Cu^+2 0.65 mM): —
- growth ([1]; L20105-3-2-8, Cu^+2 0.7 mM): —
- growth ([1]; L20105-3-2-8, Cu^+2 0.75 mM): —
- growth ([1]; L20105-3-2-8, Cu^+2 4 mM): —
- growth ([1]; L20105-3-2-8, Cu^+2 8 mM): —
- growth ([1]; L20105-3-2-12, Cu^+2 0.05 mM): ++
- growth ([1]; L20105-3-2-12, Cu^+2 0.15 mM): —
- growth ([1]; L20105-3-2-12, Cu^+2 0.2 mM): —
- growth ([1]; L20105-3-2-12, Cu^+2 0.25 mM): —
- growth ([1]; L20105-3-2-12, Cu^+2 0.3 mM): —
- growth ([1]; L20105-3-2-12, Cu^+2 0.35 mM): —
- growth ([1]; L20105-3-2-12, Cu^+2 0.45 mM): —
- growth ([1]; L20105-3-2-12, Cu^+2 0.5 mM): —
- growth ([1]; L20105-3-2-12, Cu^+2 0.55 mM): —
- growth ([1]; L20105-3-2-12, Cu^+2 0.6 mM): —
- growth ([1]; L20105-3-2-12, Cu^+2 0.65 mM): —
- growth ([1]; L20105-3-2-12, Cu^+2 0.7 mM): —
- growth ([1]; L20105-3-2-12, Cu^+2 0.75 mM): —
- growth ([1]; L20105-3-2-12, Cu^+2 4 mM): —
- growth ([1]; L20105-3-2-12, Cu^+2 8 mM): —

SMILES: [K+].[K+].[O]=[Cr](=[O])([O-])[O][Cr](=[O])(=[O])[O-] [K2Cr2O7]
- growth of wild-type strains VKM Y-9 and L20105 (leu2) ([2]; Cr^+6 0.15 mM): grow at this concentration quite satisfactory
- concentration toxic for the derepression mutants ([2]; Cr^+6 ions as K2Cr2O7): 0.15 mM
- growth of the wild-type strain [3]: almost uninhibited
